From US11091815B2, “Integrated methods for treating lignocellulosic material” (VIRDIA, LLC, priority 2015, dated 2021)
Like-named read-outs stand apart in the source and are kept apart here.

Test: Partition coefficient in a two phase system of water and MEK
Assay type: physicochemical
Experimental: Water and methylethyl ketone (MEK) were shaken for several minutes to allow saturation of each phase. The phases were separated. An excess amount of fumaric acid was stirred at 40° C. in each phase for 5 hours in a closed container. A sample of the solution was diluted with water and filtered. The concentration of fumaric acid was determined by HPLC by injecting 1-20 μL onto a Bio-Rad Aminex HPX-87H 7.2 mm column, using 0.003 M H2SO4 as eluent, flow rate 0.6 mL/min, temperature 65° C., and an RI detector. The saturated solution was held in a thermostated bath at 25° C., 10° C., 4° C. and 0° C. and allowed to equilibrate at each temperature. A sample of each solution was taken, diluted with water and injected onto the HPLC to determine fumaric acid concentration. Similarly, excess amounts of fumaric acid and Ca(OH)2 were shaken with each phase and the concentration of fumaric acid determined by HPLC in a diluted, filtered sample.
An excess amount of fumaric acid was shaken overnight at 4° C. in a biphasic system of water and MEK. The fumaric acid concentration in each phase was determined by HPLC as described in Example 4. Similarly, excess amounts of both fumaric acid and calcium hydroxide were equilibrated with a biphasic system of water and MEK. The partition coefficient was calculated as:
[formula] K was determined to be 8.6 for fumaric acid and 0.5 for calcium fumarate.

Structure (SMILES)	partition coefficient K (biphasic system of water and MEK, excess solid shaken overnight at 4° C., concentration in each phase by HPLC, calcium fumarate: excess fumaric acid and calcium hydroxide)	partition coefficient K
O=C([O-])/C=C/C(=O)[O-].[Ca+2] [calcium fumarate]	0.5	–
O=C(O)/C=C/C(=O)O [fumaric acid]	–	8.6
